Measured values from patent publication US11401286B2 (Tetra Discovery Partners, LLC, priority 2012, dated 2022).
pIC50: −log10 of the molar value. Structures can show the parent of a compound that is named as a salt. Where two headings read alike, the source gives them in different places.

Biological target: PDE4D7 (Homo sapiens (Human), UniProt Q08499)
[1] = read-out: PDE4D7 IC50, PDE4D7 without asterisk

PDE4D7, sequence (Q08499 other isoform, or with tags, fused parts or gaps): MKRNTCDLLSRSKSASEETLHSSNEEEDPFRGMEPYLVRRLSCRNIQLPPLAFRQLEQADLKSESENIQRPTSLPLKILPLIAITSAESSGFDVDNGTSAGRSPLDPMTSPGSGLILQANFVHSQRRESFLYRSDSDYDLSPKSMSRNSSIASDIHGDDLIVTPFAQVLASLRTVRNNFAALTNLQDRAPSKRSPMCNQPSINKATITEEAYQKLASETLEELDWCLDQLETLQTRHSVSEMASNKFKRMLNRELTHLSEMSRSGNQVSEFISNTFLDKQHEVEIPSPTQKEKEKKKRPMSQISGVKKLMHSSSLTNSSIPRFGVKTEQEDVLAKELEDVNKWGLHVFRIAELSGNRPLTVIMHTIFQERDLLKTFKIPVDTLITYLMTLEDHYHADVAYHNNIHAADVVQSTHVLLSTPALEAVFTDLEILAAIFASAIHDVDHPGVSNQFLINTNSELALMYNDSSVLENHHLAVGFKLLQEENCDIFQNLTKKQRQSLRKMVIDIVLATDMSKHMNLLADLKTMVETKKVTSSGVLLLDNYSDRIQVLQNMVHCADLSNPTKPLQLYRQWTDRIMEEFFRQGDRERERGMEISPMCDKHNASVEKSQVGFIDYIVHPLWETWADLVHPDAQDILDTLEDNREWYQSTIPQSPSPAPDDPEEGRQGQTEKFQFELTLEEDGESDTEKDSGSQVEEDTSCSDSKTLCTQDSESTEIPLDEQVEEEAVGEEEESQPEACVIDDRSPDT
Method: Here, a kinetic assay of cAMP hydrolysis by purified PDE4 was used, in which PDE4 activity was measured by coupling the formation of the PDE4 reaction product, 5′-adenosine monophosphate, to the oxidation of reduced nicotinamide adenine dinucleotide (NADH) by the use of three coupling enzymes (myokinase, pyruvate kinase and lactate dehydrogenase), which allows fluorescent determination of reaction rates. Assays are performed in 96-well plates in a total volume of 200 μl/well. Compounds are dissolved in dimethylsulfoxide (DMSO) and added to plates in a volume of 10 μl followed by addition of 165 μl of assay mix. Plates are pre-incubated at 25° C. for 15 min and the reactions are initiated by the addition of 25 μl of cAMP followed by thorough mixing. […] Initial rates (slopes) are determined from linear portions of the progress curves. Final concentrations of assay components are as follows: 50 mM Tris, pH 8, 10 mM MgCl2, 50 mM KCl, 2% DMSO, 5 mM tris(2-carboxyethyl)phosphine (TCEP), 0.4 mM phosphenolpyruvate (PEP), 0.01 mM NADH, 0.04 mM adenosine triphosphate (ATP), 0.004 mM cAMP, 7.5 units myokinase from yeast, 1.6 units pyruvate kinase, 2 units lactate dehydrogenase, and either 0.5 nM human PDE4D7 or 10 nM human PDE4B1. All data are percent normalized relative to controls and are presented as percent inhibition. […] Human PDE4D7 contained a mutation of serine 54 to aspartic acid to mimic activation by cAMP-dependent protein kinase A (PKA).
PDE4D7*=PDE4D7 containing a UCR1 activating mutation S54D.

Row | Structure (SMILES) | pIC50 [1] | further results
1 | CCc1cc(Cc2ccc(CCO)cc2)nc(-c2cccc(Cl)c2)n1 [Example 67, 2-(4-((2-(3-Chlorophenyl)-6-ethylpyrimidin-4-yl)methyl)phenyl)ethanol] |  | pIC50 (read-out: PDE4D7 IC50): > 6.00
2 | NC(=O)Cc1ccc(Cc2nc(-c3cccc(Cl)c3)nc3c2CCC3)cc1 [Example 68, 2-(4-((2-(3-chlorophenyl)-6,7-dihydro-5H-cyclopenta[d]pyrimidin-4-yl)methyl)phenyl)acetamide] | < 6.00 | 
3 | Cc1ccc(Cc2nc(-c3cccc(Cl)c3)nc3c2CCC3)cc1 [Example 69, 2-(3-Chlorophenyl)-4-(4-methylbenzyl)-6,7-dihydro-5H-cyclopenta[d]pyrimidine] | < 6.00 | 
4 | Cc1ccc(C(=O)c2nc(-c3cccc(Cl)c3)nc3c2CCC3)cc1 [Example 70, (2-(3-Chlorophenyl)-6,7-dihydro-5H-cyclopenta[d]pyrimidin-4-yl)(p-tolyl)methanone] | < 6.00 | 
5 | CCc1c(C)nc(-c2ccc(Cl)s2)nc1Nc1ccc2c(c1)COB2O [Example 71, 2-(5-chloro-2-thienyl)-5-ethyl-N-(1-hydroxy-3H-2,1-benzoxaborol-5-yl)-6-methyl-pyrimidin-4-amine] | > 6.00 | 
6 | CCc1nc(Nc2ccc(CO)cc2)nc(-c2cccc(Cl)c2)n1 [Example 80, (4-((4-(3-Chlorophenyl)-6-ethyl-1,3,5-triazin-2-yl)amino)phenyl)methanol] |  | pIC50 (read-out: PDE4D7 IC50): > 6.00
7 | CCc1nc(Nc2ccc(CCCO)cc2)nc(-c2cccc(Cl)c2)n1 [Example 81, 3-(4-((4-(3-Chlorophenyl)-6-ethyl-1,3,5-triazin-2-yl)amino)phenyl)propan-1-ol] |  | pIC50 (read-out: PDE4D7 IC50): > 6.00
8 | CCc1nc(Nc2ccc(CCOC)cc2)nc(-c2cccc(Cl)c2)n1 [Example 82, 4-(3-Chlorophenyl)-6-ethyl-N-(4-(2-methoxyethyl)phenyl)-1,3,5-triazin-2-amine] | > 6.00 | 
9 | NC(=O)Cc1ccc(Nc2ccnc(-c3cccc(Cl)c3)c2)cc1 [Example 83, 2-(4-((2-(3-Chlorophenyl)pyridin-4-yl)amino)phenyl)acetamide hydrochloride] | < 6.00 | 
10 | OCCc1ccc(Nc2ccnc(-c3cccc(Cl)c3)c2)cc1 [Example 84, 2-(4-((2-(3-Chlorophenyl)pyridin-4-yl)amino)phenyl)ethanol hydrochloride] |  | pIC50: < 6.00
11 | OCCCc1ccc(Nc2cc(-c3cccc(Cl)c3)nc3c2CCC3)cc1 [Example 85, 3-(4-((2-(3-Chlorophenyl)-6,7-dihydro-5H-cyclopenta[b]pyridin-4-yl)amino)phenyl)propan-1-ol hydrochloride] | > 6.00 | 
12 | COCCc1ccc(Nc2cc(-c3cccc(Cl)c3)nc3c2CCC3)cc1 [Example 86, 2-(3-Chlorophenyl)-N-(4-(2-methoxyethyl)phenyl)-6,7-dihydro-5H-cyclopenta[b]pyridin-4-amine hydrochloride] | < 6.00 | 
13 | COC(=O)c1ccc(Nc2cc(-c3cccc(Cl)c3)nc3c2CCC3)cc1 [Example 87, Methyl 4-((2-(3-chlorophenyl)-6,7-dihydro-5H-cyclopenta[b]pyridin-4-yl)amino)benzoatehydrochloride] | < 6.00 | 
14 | OCc1ccc(Nc2cc(-c3cccc(Cl)c3)nc3c2CCC3)cc1 [Example 88, (4-((2-(3-Chlorophenyl)-6,7-dihydro-5H-cyclopenta[b]pyridin-4-yl)amino)phenyl)methanol] | < 6.00 | 
15 | COC(=O)Cc1ccc(Nc2cc(-c3cccc(Cl)c3)nc3c2CCC3)cn1 [Example 89, Methyl 2-(5-((2-(3-chlorophenyl)-6,7-dihydro-5H-cyclopenta[b]pyridin-4-yl)amino)pyridin-2-yl)acetate hydrochloride] |  | pIC50 (read-out: PDE4D7 IC50): < 6.00
16 | OCCc1ccc(Nc2cc(-c3cccc(Cl)c3)nc3c2CCC3)nc1 [Example 92, 2-(6-((2-(3-Chlorophenyl)-6,7-dihydro-5H-cyclopenta[b]pyridin-4-yl)amino)pyridin-3-yl)ethanol hydrochloride] |  | pIC50 (read-out: PDE4D7 IC50): < 6.00
17 | OC[C@H]1CC[C@H](Nc2cc(-c3cccc(Cl)c3)nc3c2CCC3)CC1 [Example 93, Trans-4-((2-(3-Chlorophenyl)-6,7-dihydro-5H-cyclopenta[b]pyridin-4-yl)amino)cyclohexyl-methanol hydrochloride] | < 6.00 | 
18 | NC(=O)Cc1ccc(Nc2cc(-c3cccc(Cl)c3)nc3c2CCC3)nc1 [Example 94, 2-(6-((2-(3-Chlorophenyl)-6,7-dihydro-5H-cyclopenta[b]pyridin-4-yl)amino)pyridin-3-yl)acetamide hydrochloride] | < 6.00 | 
19 | NC(=O)C[C@H]1CC[C@H](Nc2cc(-c3cccc(Cl)c3)nc3c2CCC3)CC1 [Example 96, Trans-2-(4-((2-(3-Chlorophenyl)-6,7-dihydro-5H-cyclopenta[b]pyridin-4-yl)amino)cyclohexyl)acetamide hydrochloride] | < 6.00 | 

Row | Structure (SMILES) | pIC50 [1] | further results
20 | OCC[C@H]1CC[C@H](Nc2cc(-c3cccc(Cl)c3)nc3c2CCC3)CC1 [Example 97, Trans-2-(4-((2-(3-chlorophenyl)-6,7-dihydro-5H-cyclopenta[b]pyridin-4-yl)amino)cyclohexyl)ethanol hydrochloride] | < 6.00 | 
21 | CC(C)(O)Cc1ccc(Nc2cc(-c3cccc(Cl)c3)nc3c2CCC3)cc1 [Example 98, 1-(4-((2-(3-Chlorophenyl)-6,7-dihydro-5H-cyclopenta[b]pyridin-4-yl)amino)phenyl)-2-methylpropan-2-ol] | < 6.00 | 
22 | COC(=O)Cc1cccc(Nc2cc(-c3cccc(Cl)c3)nc3c2CCC3)c1 [Example 100, Methyl 2-(3-((2-(3-chlorophenyl)-6,7-dihydro-5H-cyclopenta[b]pyridin-4-yl)amino)phenyl)acetate hydrochloride] | < 6.00 | 
23 | NC(=O)Cc1cccc(Nc2cc(-c3cccc(Cl)c3)nc3c2CCC3)c1 [Example 101, 2-(3-((2-(3-Chlorophenyl)-6,7-dihydro-5H-cyclopenta[b]pyridin-4-yl)amino)phenyl)acetamide hydrochloride] | < 6.00 | 
24 | OCCc1cccc(Nc2cc(-c3cccc(Cl)c3)nc3c2CCC3)c1 [Example 102, 2-(3-((2-(3-Chlorophenyl)-6,7-dihydro-5H-cyclopenta[b]pyridin-4-yl)amino)phenyl)ethanol hydrochloride] | < 6.00 | 
25 | NC(=O)Cc1ccc(Nc2cc(-c3cccc(Cl)c3)[n+]([O-])c3c2CCC3)cc1 [Example 103, 4-((4-(2-Amino-2-oxoethyl)phenyl)amino)-2-(3-chlorophenyl)-6,7-dihydro-5H-cyclopenta[b]pyridine 1-oxide] | < 6.00 | 
26 | CC(O)Cc1ccc(Nc2cc(-c3cccc(Cl)c3)nc3c2CCC3)cc1 (centres unmarked) [Example 104, 1-(4-((2-(3-Chlorophenyl)-6,7-dihydro-5H-cyclopenta[b]pyridin-4-yl)amino)phenyl)propan-2-ol] | < 6.00 | 
27 | CN(C)CCc1ccc(Nc2cc(-c3cccc(Cl)c3)nc3c2CCC3)cc1 [Example 105, 2-(3-Chlorophenyl)-N-(4-(2-(dimethylamino)ethyl)phenyl)-6,7-dihydro-5H-cyclopenta[b]pyridin-4-amine hydrochloride] |  | pIC50 (read-out: PDE4D7 IC50): < 6.00
28 | C[C@@H](O)Cc1ccc(Nc2cc(-c3cccc(Cl)c3)nc3c2CCC3)cc1 [Example 106, (R)-1-(4-((2-(3-Chlorophenyl)-6,7-dihydro-5H-cyclopenta[b]pyridin-4-yl)amino)phenyl)propan-2-ol] | < 6.00 | 
29 | C[C@H](O)Cc1ccc(Nc2cc(-c3cccc(Cl)c3)nc3c2CCC3)cc1 [Example 107, (S)-1-(4-((2-(3-Chlorophenyl)-6,7-dihydro-5H-cyclopenta[b]pyridin-4-yl)amino)phenyl)propan-2-ol] | < 6.00 | 
30 | NC(=O)C(CO)Cc1ccc(Nc2cc(-c3cccc(Cl)c3)nc3c2CCC3)cc1 (centres unmarked) [Example 108, 2-(4-((2-(3-Chlorophenyl)-6,7-dihydro-5H-cyclopenta[b]pyridin-4-yl)amino)benzyl)-3-hydroxypropanamide hydrochloride] | > 6.00 | 
31 | Cc1cc(Nc2cc(-c3cccc(Cl)c3)nc3c2CCC3)ccc1CC#N [Example 109, 2-(4-((2-(3-Chlorophenyl)-6,7-dihydro-5H-cyclopenta[b]pyridin-4-yl)amino)-2-methylphenyl)acetonitrile hydrochloride] | < 6.00 | 
32 | FC(F)(F)Cc1ccc(Nc2cc(-c3cccc(Cl)c3)nc3c2CCC3)cc1 [Example 110, 2-(3-Chlorophenyl)-N-(4-(2,2,2-trifluoroethyl)phenyl)-6,7-dihydro-5H-cyclopenta[b]pyridin-4-amine hydrochloride] | < 6.00 | 
33 | Cc1cc(Nc2cc(-c3cccc(Cl)c3)nc3c2CCC3)ccc1CC(N)=O [Example 111, 2-(4-((2-(3-Chlorophenyl)-6,7-dihydro-5H-cyclopenta[b]pyridin-4-yl)amino)-2-methylphenyl)acetamide hydrochloride] | < 6.00 | 
34 | NC(=O)Cc1ccc(Nc2cc(-c3cccc(Cl)c3)nc3c2CCC3)cc1F [Example 112, 2-(4-((2-(3-Chlorophenyl)-6,7-dihydro-5H-cyclopenta[b]pyridin-4-yl)amino)-2-fluorophenyl)acetamide hydrochloride] | < 6.00 | 
35 | OCCc1ccc(Nc2cc(-c3cccc(Cl)c3)nc3c2CCC3)cc1F [Example 113, 2-(4-((2-(3-Chlorophenyl)-6,7-dihydro-5H-cyclopenta[b]pyridin-4-yl)amino)-2-fluorophenyl)ethanol hydrochloride] | < 6.00 | 
36 | Clc1cccc(-c2cc(Nc3ccc(Cc4ncco4)cc3)c3c(n2)CCC3)c1 [Example 114, 2-(3-Chlorophenyl)-N-(4-(oxazol-2-ylmethyl)phenyl)-6,7-dihydro-5H-cyclopenta[b]pyridin-4-amine hydrochloride] | < 6.00 | 
37 | OCC(O)c1ccc(Nc2cc(-c3cccc(Cl)c3)nc3c2CCC3)cc1 (centres unmarked) [Example 115, 1-(4-((2-(3-Chlorophenyl)-6,7-dihydro-5H-cyclopenta[b]pyridin-4-yl)amino)phenyl)ethane-1,2-diol hydrochloride] | < 6.00 | 
38 | CC(Oc1ccc(Nc2cc(-c3cccc(Cl)c3)nc3c2CCC3)cc1)C(N)=O (centres unmarked) [Example 116, 2-(4-((2-(3-Chlorophenyl)-6,7-dihydro-5H-cyclopenta[b]pyridin-4-yl)amino)phenoxy)propanamide hydrochloride] | < 6.00 | 
